{"source": "patent US20080299234A1", "about": "“Medication Comprising Plant Extracts as a Lipase Inhibitor” (priority 2005, published 2008)", "key": {"triglyceride": {"test_system": "triglyceride", "details": "Tsujita et al. 1996; Kagawa et al. 1996, 1998; cited from earlier work"}, "[1]": {"test_system": "postprandial triglyceride values in the plasma of rats", "assay": "lipid stress test in rats with Triton WR-1339 (postprandial rise in plasma triglyceride values)", "type": "in vivo", "description": "For further examination and verification of the results determined in vitro, the triglyceride-reducing effect was tested in an animal experiment.\nTo this end a lipid stress test was carried out in rats with Triton WR-1339 to inhibit the triglyceride elimination from the blood and the postprandial rise in plasma triglyceride values over four hours The following test substances were used:\nOrlistat as positive control.\nAs result, the rise in postprandial triglyceride values in the plasma of rats after administration of the test substances was recorded. […] They include linseed, sunflower, marigold and propolis."}, "pancreatic lipase": {"molecular_target": "T1, pancreatic lipase (Homo sapiens, UniProt P16233)", "T1 sequence (P16233 17-465)": "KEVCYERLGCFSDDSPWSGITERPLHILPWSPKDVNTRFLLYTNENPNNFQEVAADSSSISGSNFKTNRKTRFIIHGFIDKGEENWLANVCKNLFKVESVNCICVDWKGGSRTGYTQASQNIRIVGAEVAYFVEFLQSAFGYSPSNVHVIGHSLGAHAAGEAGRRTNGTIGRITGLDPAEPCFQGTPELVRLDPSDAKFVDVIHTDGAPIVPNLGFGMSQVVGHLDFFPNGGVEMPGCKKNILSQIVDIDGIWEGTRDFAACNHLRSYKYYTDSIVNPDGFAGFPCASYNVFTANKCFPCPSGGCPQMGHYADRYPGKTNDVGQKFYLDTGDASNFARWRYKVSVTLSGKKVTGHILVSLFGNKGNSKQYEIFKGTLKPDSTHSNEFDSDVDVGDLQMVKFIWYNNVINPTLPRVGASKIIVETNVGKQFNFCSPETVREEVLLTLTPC", "details": "application of Orlistat; cited from earlier work"}}, "data": [{"compound": "VVYP (UniProt P02070 32-35, looked up, fragment) [fragment 32-35 of the β-chain of bovine haemoglobin]", "values": [{"measurement": "triglyceride-reducing (literature)", "setting": "triglyceride", "result": "triglyceride-reducing"}]}, {"compound": "protamine", "values": [{"measurement": "triglyceride-reducing (literature)", "setting": "triglyceride", "result": "triglyceride reducing"}, {"measurement": "triglyceride-reducing effect (in words)", "setting": "[1]; rats, lipid stress test with Triton WR-1339, postprandial plasma triglyceride rise (FIG. 1)", "result": "no triglyceride-reducing effect was found"}]}, {"compound": "CCCCCCCCCCC[C@@H](C[C@@H]1OC(=O)[C@H]1CCCCCC)OC(=O)[C@H](CC(C)C)NC=O", "note": "[Orlistat, Tetrahydrolipstatin]", "values": [{"measurement": "undesired side effects", "setting": "pancreatic lipase", "result": "oily or fatty stools"}, {"measurement": "triglyceride values as a function of the time after food intake (in words)", "setting": "[1]; rat plasma after lipid stress test, experimental period of four hours (FIG. 2)", "result": "the lowest"}]}]}
